Experimental findings from patent publication US12404295B2, “(Hetero)aryl-methyl-thio-beta-D-galactopyranoside derivatives” (Idorsia Pharmaceuticals Ltd, priority 2019, dated 2025) are described below.

Read-outs that look alike come from different tables or passages of the source.

One assay addresses human Gal-1 (hGal-1) (Homo sapiens (Human), UniProt P09382). The experiment in a line: competitive binding assay: biotinylated hGal-1 binding to microplate-adsorbed asialofetuin (ASF). Particulars: Table 15; read-out: IC50 (Galectin-1 inhibition). The method in brief:
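Spectrophotometric competition readout: after compound and biotinylated hGal-1 (300-1000 ng/mL) sit 3 h at 4° C on adsorbed asialofetuin, streptavidin-peroxidase (1 h, 4° C) and ABTS reveal residual binding. Reported IC50 values are means of repeat runs.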

The next assay has as its target human Gal-3 (hGal-3) (Homo sapiens (Human), UniProt P17931). Nature of the assay: competitive binding assay: biotinylated hGal-3 binding to microplate-adsorbed asialofetuin (ASF). The method in brief:
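Serially diluted compounds compete with biotinylated hGal-3 binding to adsorbed asialofetuin (3 hours, 4° C). After washing, streptavidin-peroxidase at 80 ng/mL for 1 hour at 4° C, with ABTS colour read-out. IC50 values are averaged over repeated runs.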

Where [1] appears, read: Gal-3 inhibition, binding of biotinylated hGal-3 to ASF, mean values, read-out: IC50.
The mark [2] stands for this setting: Table 11, read-out: IC50 (Gal-3 inhibition).
The mark [3] stands for this setting: Table 5, read-out: IC50 (Gal-3 inhibition).
The mark [4] stands for this setting: Table 14, read-out: IC50 (Gal-3 inhibition).

Chain of human Gal-1 (hGal-1) (P09382 whole entry): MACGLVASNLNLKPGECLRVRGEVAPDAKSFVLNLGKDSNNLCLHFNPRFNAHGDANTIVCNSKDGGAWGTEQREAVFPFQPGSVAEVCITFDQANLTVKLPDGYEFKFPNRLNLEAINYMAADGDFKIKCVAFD
Chain of human Gal-3 (hGal-3) (P17931 whole entry): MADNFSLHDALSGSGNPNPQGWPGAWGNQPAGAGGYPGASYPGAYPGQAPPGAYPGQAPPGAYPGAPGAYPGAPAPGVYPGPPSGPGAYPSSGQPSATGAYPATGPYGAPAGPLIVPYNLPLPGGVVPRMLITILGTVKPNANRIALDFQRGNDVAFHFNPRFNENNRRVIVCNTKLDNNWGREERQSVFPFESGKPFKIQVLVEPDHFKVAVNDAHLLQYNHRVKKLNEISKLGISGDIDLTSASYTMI

The term IC50 denotes the midpoint of a concentration-inhibition curve. For the compound `CCC(O)(CC)[C@@H](S[C@@H]1O[C@H](CO)[C@H](O)[C@H](n2cc(-c3cc(F)c(F)c(F)c3)nn2)[C@H]1O)c1conc1C` [Example 2.32.120S., (2S,3R,4S,5R,6R)-2-(((S)-2-Ethyl-2-hydroxy-1-(3-methylisoxazol-4-yl)butyl)thio)-6-(hydroxymethyl)-4-(4-(3,4,5-trifluorophenyl)-1H-1,2,3-triazol-1-yl)tetrahydro-2H-pyran-3,5-diol], the IC50 at human Gal-1 (hGal-1) was found to be 77400 nM; on human Gal-3 (hGal-3) (setting [1]) it was 11300 nM.
Take `CO[C@@H]1[C@@H](n2cc(-c3cc(F)c(F)c(F)c3)nn2)[C@@H](O)[C@@H](CO)O[C@H]1SC(c1nc(C)ccc1C)C1(O)CCC(F)(F)CC1` (stereo partly drawn) [Example 2.44.149.I., (2R,3R,4S,5R,6S)-6-(((4,4-Difluoro-1-hydroxycyclohexyl)(3,6-dimethylpyridin-2-yl)methyl)thio)-2-(hydroxymethyl)-5-methoxy-4-(4-(3,4,5-trifluorophenyl)-1H-1,2,3-triazol-1-yl)tetrahydro-2H-pyran-3-ol]: the IC50 came to 2800 nM on human Gal-1 (hGal-1) and 400 nM at human Gal-3 (hGal-3) (setting [2]).
As to “(2S,3R,4S,5R,6R)-2-(((3,3-Difluoro-1-hydroxycyclobutyl)(3-(trifluoromethyl)pyridin-2-yl)methyl)thio)-6-(hydroxymethyl)-4-(4-(3,4,5-trifluorophenyl)-1H-1,2,3-triazol-1-yl)tetrahydro-2H-pyran-3,5-diol [Example 2.35.125.]”, the IC50 came to 1460 nM on human Gal-1 (hGal-1) and 320 nM on human Gal-3 (hGal-3) (setting [3]).
For `OC[C@H]1O[C@@H](SC(c2ccccc2)C2CC2)[C@H](O)[C@@H](n2cc(-c3cc(F)c(F)c(F)c3)nn2)[C@H]1O` (stereo partly drawn) [Example 2.54.100., (2S,3R,4S,5R,6R)-2-((Cyclopropyl(phenyl)methyl)thio)-6-(hydroxymethyl)-4-(4-(3,4,5-trifluorophenyl)-1H-1,2,3-triazol-1-yl)tetrahydro-2H-pyran-3,5-diol, reference compound], the IC50 on human Gal-1 (hGal-1) turned out to be 61200 nM; on human Gal-3 (hGal-3) (setting [1]), 3210 nM.
Turning to `CO[C@@H]1[C@@H](n2cc(-c3cc(F)c(F)c(F)c3)nn2)[C@@H](O)[C@@H](CO)O[C@H]1SC(c1nc(C)c(C)nc1C)C1(O)CCC(F)(F)CC1` (stereo partly drawn) [Example 2.44.119.I., (2R,3R,4S,5R,6S)-6-(((4,4-Difluoro-1-hydroxycyclohexyl)(3,5,6-trimethylpyrazin-2-yl)methyl)thio)-2-(hydroxymethyl)-5-methoxy-4-(4-(3,4,5-trifluorophenyl)-1H-1,2,3-triazol-1-yl)tetrahydro-2H-pyran-3-ol], the IC50 was 1300 nM at human Gal-1 (hGal-1) and 260 nM on human Gal-3 (hGal-3) (setting [2]).
In the case of `CO[C@@H]1[C@@H](n2cc(-c3ccc(F)c(F)c3)nn2)[C@@H](O)[C@@H](CO)O[C@H]1S[C@H](c1ncccc1C)C1(O)CCC(F)(F)CC1` [Example 16.44.126R.I., (2R,3R,4S,5R,6S)-6-(((R)-(4,4-Difluoro-1-hydroxycyclohexyl)(3-methylpyridin-2-yl)methyl)thio)-4-(4-(3,4-difluorophenyl)-1H-1,2,3-triazol-1-yl)-2-(hydroxymethyl)-5-methoxytetrahydro-2H-pyran-3-ol], the IC50 came out at 570 nM on human Gal-1 (hGal-1) and 80 nM on human Gal-3 (hGal-3) (setting [4]).
Consider “(2S,3R,4S,5R,6R)-2-(((R)-((R)-4-Hydroxy-2,2-dimethyltetrahydro-2H-pyran-4-yl)(o-tolyl)methyl)thio)-6-(hydroxymethyl)-4-(4-(3,4,5-trifluorophenyl)-1H-1,2,3-triazol-1-yl)tetrahydro-2H-pyran-3,5-diol [Example 2.43.112RR.]”, for which the IC50 on human Gal-1 (hGal-1) stood at 6800 nM; on human Gal-3 (hGal-3) (setting [3]), 1500 nM.
For `OC[C@H]1O[C@@H](S[C@H](c2ncccc2C(F)(F)F)C2(O)CCOCC2)[C@H](O)[C@@H](n2cc(-c3cc(F)c(F)c(F)c3)nn2)[C@H]1O` [Example 2.41.125R., (2R,3R,4S,5R,6S)-2-(Hydroxymethyl)-6-(((R)-(4-hydroxytetrahydro-2H-pyran-4-yl)(3-(trifluoromethyl)pyridin-2-yl)methyl)thio)-4-(4-(3,4,5-trifluorophenyl)-1H-1,2,3-triazol-1-yl)tetrahydro-2H-pyran-3,5-diol], in that order: 130 nM and 30 nM.
On to `CO[C@@H]1[C@@H](n2cc(-c3cc(F)c(F)c(F)c3)nn2)[C@@H](O)[C@@H](CO)O[C@H]1S[C@H](c1nc(C)ccc1Cl)C1(O)CCC(F)(F)CC1` [Example 2.44.148R.I., (2R,3R,4S,5R,6S)-6-(((R)-(3-Chloro-6-methylpyridin-2-yl)(4,4-difluoro-1-hydroxycyclohexyl)methyl)thio)-2-(hydroxymethyl)-5-methoxy-4-(4-(3,4,5-trifluorophenyl)-1H-1,2,3-triazol-1-yl)tetrahydro-2H-pyran-3-ol], for which the IC50 on human Gal-1 (hGal-1) was 3040 nM; on human Gal-3 (hGal-3) (setting [2]), 240 nM.
Regarding `Cc1conc1[C@H](S[C@@H]1O[C@H](CO)[C@H](O)[C@H](n2cc(-c3cc(F)c(F)c(F)c3)nn2)[C@H]1O)C1(O)CCS(=O)(=O)CC1` [Example 2.66.120S., 4-((S)-(((2S,3R,4S,5R,6R)-3,5-Dihydroxy-6-(hydroxymethyl)-4-(4-(3,4,5-trifluorophenyl)-1H-1,2,3-triazol-1-yl)tetrahydro-2H-pyran-2-yl)thio)(4-methylisoxazol-3-yl)methyl)-4-hydroxytetrahydro-2H-thiopyran 1,1-dioxide], the IC50 is 24100 nM on human Gal-1 (hGal-1) and 4570 nM on human Gal-3 (hGal-3) (setting [1]).
As for `CO[C@@H]1[C@@H](n2cc(-c3cc(F)c(F)c(F)c3)nn2)[C@@H](O)[C@@H](CO)O[C@H]1S[C@H](c1nocc1C)C1(O)CCOCC1` [Example 2.41.120R.I., (2R,3R,4S,5R,6S)-2-(Hydroxymethyl)-6-(((R)-(4-hydroxytetrahydro-2H-pyran-4-yl)(4-methylisoxazol-3-yl)methyl)thio)-5-methoxy-4-(4-(3,4,5-trifluorophenyl)-1H-1,2,3-triazol-1-yl)tetrahydro-2H-pyran-3-ol], the IC50 at human Gal-1 (hGal-1) is 500 nM; on human Gal-3 (hGal-3) (Table 10, 2-OMe-Gal inhibitors, read-out: IC50 (Gal-3 inhibition)), 190 nM.
Consider `CC(C)(O)C(S[C@@H]1O[C@H](CO)[C@H](O)[C@H](n2cc(-c3cc(F)c(F)c(F)c3)nn2)[C@H]1O)c1cccc2ccccc12` (stereo partly drawn) [Example 2.31.115., (2S,3R,4S,5R,6R)-2-((2-Hydroxy-2-methyl-1-(naphthalen-1-yl)propyl)thio)-6-(hydroxymethyl)-4-(4-(3,4,5-trifluorophenyl)-1H-1,2,3-triazol-1-yl)tetrahydro-2H-pyran-3,5-diol], for which the IC50 at human Gal-1 (hGal-1) was found to be 1390 nM; at human Gal-3 (hGal-3) (setting [1]), 180 nM.
With `CO[C@@H]1[C@@H](n2cc(-c3cc(F)c(F)c(F)c3)nn2)[C@@H](O)[C@@H](CO)O[C@H]1S[C@H](c1ncccc1C)C1(O)CCS(=O)(=O)CC1` [Example 2.66.126R.I., 4-Hydroxy-4-((R)-(((2S,3R,4S,5R,6R)-5-hydroxy-6-(hydroxymethyl)-3-methoxy-4-(4-(3,4,5-trifluorophenyl)-1H-1,2,3-triazol-1-yl)tetrahydro-2H-pyran-2-yl)thio)(3-methylpyridin-2-yl)methyl)tetrahydro-2H-thiopyran 1,1-dioxide], the IC50 on human Gal-1 (hGal-1) is 90 nM; at human Gal-3 (hGal-3) (Table 9, 2-OMe-Gal inhibitors, read-out: IC50 (Gal-3 inhibition)) it was 60 nM.
With `Cc1ccccc1C(S[C@@H]1O[C@H](CO)[C@H](O)[C@H](n2cc(-c3cc(F)c(F)c(F)c3)nn2)[C@H]1O)C1(O)CCC1` (stereo partly drawn) [Example 2.34.102., (2S,3R,4S,5R,6R)-2-(((1-Hydroxycyclobutyl)(o-tolyl)methyl)thio)-6-(hydroxymethyl)-4-(4-(3,4,5-trifluorophenyl)-1H-1,2,3-triazol-1-yl)tetrahydro-2H-pyran-3,5-diol], the IC50 was found to be 11000 nM at human Gal-1 (hGal-1) and 1000 nM on human Gal-3 (hGal-3) (setting [3]).
With `CO[C@@H]1[C@@H](n2cc(-c3cc(F)c(C)c(F)c3)nn2)[C@@H](O)[C@@H](CO)O[C@H]1S[C@@H](c1ncccc1C)C1(O)CCC(F)(F)CC1` [Example 3.44.126S.I., (2R,3R,4S,5R,6S)-6-(((S)-(4,4-Difluoro-1-hydroxycyclohexyl)(3-methylpyridin-2-yl)methyl)thio)-4-(4-(3,5-difluoro-4-methylphenyl)-1H-1,2,3-triazol-1-yl)-2-(hydroxymethyl)-5-methoxytetrahydro-2H-pyran-3-ol], the IC50 was 20000 nM at human Gal-1 (hGal-1) and 1160 nM at human Gal-3 (hGal-3) (setting [4]).
In the case of `CC(C)c1ccccc1[C@H](S[C@@H]1O[C@H](CO)[C@H](O)[C@H](n2cc(-c3cc(F)c(F)c(F)c3)nn2)[C@H]1O)C1(O)CCC(F)(F)CC1` [Example 2.44.105S., (2S,3R,4S,5R,6R)-2-(((S)-(4,4-Difluoro-1-hydroxycyclohexyl)(2-isopropylphenyl)methyl)thio)-6-(hydroxymethyl)-4-(4-(3,4,5-trifluorophenyl)-1H-1,2,3-triazol-1-yl)tetrahydro-2H-pyran-3,5-diol], the IC50 at human Gal-1 (hGal-1) was determined as 520 nM; at human Gal-3 (hGal-3) (setting [3]), 950 nM.
Regarding `CO[C@@H]1[C@@H](n2cc(-c3cc(F)c(F)c(F)c3)nn2)[C@@H](O)[C@@H](CO)O[C@H]1S[C@@H](c1noc(C2CC2)c1C)C1(O)CCC(F)(F)CC1` [Example 2.44.145S.I., (2R,3R,4S,5R,6S)-6-(((S)-(5-Cyclopropyl-4-methylisoxazol-3-yl)(4,4-difluoro-1-hydroxycyclohexyl)methyl)thio)-2-(hydroxymethyl)-5-methoxy-4-(4-(3,4,5-trifluorophenyl)-1H-1,2,3-triazol-1-yl)tetrahydro-2H-pyran-3-ol], the IC50 on human Gal-1 (hGal-1) amounted to 31000 nM; on human Gal-3 (hGal-3) (setting [2]), 11200 nM.
